Laboratory results as given in PMC7997453 (Pharmaceuticals, 2021).
Like-named read-outs stand apart in the source and are kept apart here.

What was measured:
CYP3A4 [1] = target: T1, CYP3A4 (Homo sapiens, UniProt P08684); assay: Time-dependent inhibition (TDI) assay, testosterone-6β-hydroxylation, CYP3A5*3/*3 HLM; type: biochemical
Experimental: (§1) Testosterone-6β-hydroxylation was used to measure the activity of CYP3A4 and CYP3A5. […] With the corresponding double-reciprocal plot, the derived kinetic constants from the inactivation experiments were estimated.
(§2) Two-step incubation was performed to evaluate the TDI assay. […] After pre-incubation for 3 min at 37 °C in a shaking water bath, the enzymatic reaction was started upon adding NADPH (1 mM) with various pre-reaction time (0, 5, 10, 20, 30 min). For TDI on CYP3A5, NADPH (1 mM) was added to the incubation which contained CYP3A5*1/*3 HLM (0.5 mg/mL) and CYP3cide (1.2 μM) after being pre-warmed for 3 min. […] Next step, an aliquot (20 μL) of the primary pre-reaction mixture was transferred to 180 μL of the secondary incubation system which consisted of PBS (0.1 M), testosterone (200 μM) and NADPH (1 mM). The secondary reaction was incubated at 37 °C for 10 min and terminated by adding 400 μL ice-cold acetonitrile containing prednisolone as the internal standard (0.3150 μM for CYP3A5*3/*3 HLM incubation and 0.07875 μM for CYP3A5*1/*3 HLM incubation). […] The observed inactivation rate of the affected enzyme (kobs) was the negative slope of the linear regression. kinact and KI were calculated using Equation (1) by the double-reciprocal plot. I represents the concentration of the inhibitor. (1) kobs=kinact×I/[…]

CYP3A5 [2] = target: T2, CYP3A5 (Homo sapiens, UniProt P20815); assay: Time-dependent inhibition (TDI) assay, testosterone-6β-hydroxylation, CYP3A5*1/*3 HLM with CYP3cide; type: biochemical
T2 sequence (P20815 whole entry): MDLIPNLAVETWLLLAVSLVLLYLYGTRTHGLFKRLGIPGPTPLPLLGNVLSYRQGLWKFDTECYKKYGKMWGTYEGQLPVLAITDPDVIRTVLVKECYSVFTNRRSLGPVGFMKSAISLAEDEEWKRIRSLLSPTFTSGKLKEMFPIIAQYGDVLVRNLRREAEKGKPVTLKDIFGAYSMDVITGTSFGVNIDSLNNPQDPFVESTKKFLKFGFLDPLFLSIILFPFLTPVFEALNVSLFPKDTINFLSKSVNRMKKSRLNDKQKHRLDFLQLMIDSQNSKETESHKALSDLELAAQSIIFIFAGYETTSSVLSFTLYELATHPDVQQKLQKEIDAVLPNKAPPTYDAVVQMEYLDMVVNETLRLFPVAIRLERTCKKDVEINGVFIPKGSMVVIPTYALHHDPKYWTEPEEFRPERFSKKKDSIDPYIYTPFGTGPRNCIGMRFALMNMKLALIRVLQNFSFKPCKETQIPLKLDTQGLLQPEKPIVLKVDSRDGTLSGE
Experimental: as §1, §2

[3] = tissue to plasma partition coefficients; details: In-house data
From the text: All PBPK simulations were constructed using the population-based ADME(absorption, distribution, metabolism, and excretion) simulator (version 13.1.1, Simcyp® Ltd., Certara, Sheffield, UK).

[4] = intrinsic clearance in human liver microsomes; type: in vitro ADME; details: In-house data, read-out: CLint,HLM
CYP3A = details: rat liver microsomes, cited from earlier work
[5] = parameters: method as in PMID 24195812; details: rats; oral dose of 0.024 mM/kg STA or SIA; cited from earlier work
[6] = ref supplement 1; cited from earlier work
[7] = ref supplement 2; cited from earlier work
[8] = parameters: method as in https://pubchem.ncbi.nlm.nih.gov/; details: ref https://pubchem.ncbi.nlm.nih.gov/; cited from earlier work
CYP3A4 [9] = target: T1, CYP3A4; assay: Reversible inhibition (RI) assay on tacrolimus metabolism, CYP3A5*3/*3 HLM
Experimental: (§3) The reactions were started with the addition of nicotinamide adenine dinucleotide phosphate (NADPH, 1 mM) and stopped 10 min later upon adding a double volume of ice-cold methanol. […] Reactions were terminated with the same method as the CYP3A4 group. All incubations were carried out in triplicate. […] Dixon plots were used to analyze the inhibitory type of RI assay and Ki value.

CYP3A5 [10] = target: T2, CYP3A5; assay: Reversible inhibition (RI) assay on tacrolimus metabolism, CYP3A5*1/*3 HLM with CYP3cide
Experimental: as §3

[11] = 2 μM SIA, pre-incubation 10 min
[12] = 2 μM SIA, pre-incubation 20 min
[13] = 2 μM SIA, pre-incubation 30 min
[14] = 4 μM SIA, pre-incubation 10 min
[15] = 4 μM SIA, pre-incubation 20 min
[16] = 4 μM SIA, pre-incubation 30 min
[17] = 8 μM SIA, pre-incubation 10 min
[18] = 8 μM SIA, pre-incubation 20 min
[19] = 8 μM SIA, pre-incubation 30 min
[20] = 16 μM SIA, pre-incubation 0 min
[21] = 16 μM SIA, pre-incubation 5 min
[22] = 16 μM SIA, pre-incubation 10 min
[23] = 16 μM SIA, pre-incubation 20 min
[24] = 16 μM SIA, pre-incubation 30 min

T1 sequence (P08684 whole entry): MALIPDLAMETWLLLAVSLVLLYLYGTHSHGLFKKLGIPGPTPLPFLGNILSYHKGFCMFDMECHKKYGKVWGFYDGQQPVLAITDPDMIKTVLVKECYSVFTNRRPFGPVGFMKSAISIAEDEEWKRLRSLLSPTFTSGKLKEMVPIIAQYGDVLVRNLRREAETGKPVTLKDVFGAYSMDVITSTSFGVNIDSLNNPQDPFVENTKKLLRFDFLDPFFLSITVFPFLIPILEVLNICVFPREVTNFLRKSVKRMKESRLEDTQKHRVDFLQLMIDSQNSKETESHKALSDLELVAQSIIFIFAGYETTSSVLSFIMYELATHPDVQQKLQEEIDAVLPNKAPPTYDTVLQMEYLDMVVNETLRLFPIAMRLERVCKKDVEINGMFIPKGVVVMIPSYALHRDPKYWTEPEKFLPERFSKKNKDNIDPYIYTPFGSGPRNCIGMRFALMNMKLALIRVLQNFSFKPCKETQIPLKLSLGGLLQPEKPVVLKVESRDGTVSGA

Structure (SMILES): COc1cc2c(c(OC)c1OC)-c1c(cc(OC)c(OC)c1OC)C[C@H](C)[C@H](C)C2 [SIA, schisandrin A]
- TDI profile on CYP3A4 (in words) (CYP3A4 [1]): slight TDI
- log of percentage of control activity, Figure 4A, Mean (CYP3A4 [1]; 2 μM SIA, pre-incubation 0 min): 4.6052
- log of percentage of control activity, Figure 4A, Mean (CYP3A4 [1]; 2 μM SIA, pre-incubation 5 min): 4.5754
- log of percentage of control activity, Figure 4A, Mean (CYP3A4 [1]; [11]): 4.5165
- log of percentage of control activity, Figure 4A, Mean (CYP3A4 [1]; [12]): 4.4602
- log of percentage of control activity, Figure 4A, Mean (CYP3A4 [1]; [13]): 4.3520
- log of percentage of control activity, Figure 4A, Mean (CYP3A4 [1]; 4 μM SIA, pre-incubation 0 min): 4.6052
- log of percentage of control activity, Figure 4A, Mean (CYP3A4 [1]; 4 μM SIA, pre-incubation 5 min): 4.5505
- log of percentage of control activity, Figure 4A, Mean (CYP3A4 [1]; [14]): 4.4420
- log of percentage of control activity, Figure 4A, Mean (CYP3A4 [1]; [15]): 4.3925
- log of percentage of control activity, Figure 4A, Mean (CYP3A4 [1]; [16]): 4.2490
- log of percentage of control activity, Figure 4A, Mean (CYP3A4 [1]; 8 μM SIA, pre-incubation 0 min): 4.6029
- log of percentage of control activity, Figure 4A, Mean (CYP3A4 [1]; 8 μM SIA, pre-incubation 5 min): 4.5164
- log of percentage of control activity, Figure 4A, Mean (CYP3A4 [1]; [17]): 4.3979
- log of percentage of control activity, Figure 4A, Mean (CYP3A4 [1]; [18]): 4.2781
- log of percentage of control activity, Figure 4A, Mean (CYP3A4 [1]; [19]): 4.1876
- log of percentage of control activity, Figure 4A, Mean (CYP3A4 [1]; [20]): 4.6052
- log of percentage of control activity, Figure 4A, Mean (CYP3A4 [1]; [21]): 4.4518
- log of percentage of control activity, Figure 4A, Mean (CYP3A4 [1]; [22]): 4.3776
- log of percentage of control activity, Figure 4A, Mean (CYP3A4 [1]; [23]): 4.2397
- log of percentage of control activity, Figure 4A, Mean (CYP3A4 [1]; [24]): 4.0738
- kinact/KI (CYP3A4 [1]; CYP3A4): 125 M⁻¹ s⁻¹
- KI (CYP3A4 [1]; CYP3A4, testosterone-6β-hydroxylation): 2.54 µM
- kinact (CYP3A4 [1]; human, CYP3A5*3/*3 human liver microsomes, probe testosterone (200 μM), CYP3A4, testosterone-6β-hydroxylation): 0.000317 s⁻¹
- TDI profile on CYP3A5 (in words) (CYP3A5 [2]): slight TDI
- log of percentage of control activity, Figure 4C, Mean (CYP3A5 [2]; 2 μM SIA, pre-incubation 0 min): 4.6052
- log of percentage of control activity, Figure 4C, Mean (CYP3A5 [2]; 2 μM SIA, pre-incubation 5 min): 4.5539
- log of percentage of control activity, Figure 4C, Mean (CYP3A5 [2]; [11]): 4.5218
- log of percentage of control activity, Figure 4C, Mean (CYP3A5 [2]; [12]): 4.4427
- log of percentage of control activity, Figure 4C, Mean (CYP3A5 [2]; [13]): 4.3791
- log of percentage of control activity, Figure 4C, Mean (CYP3A5 [2]; 4 μM SIA, pre-incubation 0 min): 4.6052
- log of percentage of control activity, Figure 4C, Mean (CYP3A5 [2]; 4 μM SIA, pre-incubation 5 min): 4.4998
- log of percentage of control activity, Figure 4C, Mean (CYP3A5 [2]; [14]): 4.5031
- log of percentage of control activity, Figure 4C, Mean (CYP3A5 [2]; [15]): 4.4869
- log of percentage of control activity, Figure 4C, Mean (CYP3A5 [2]; [16]): 4.2859
- log of percentage of control activity, Figure 4C, Mean (CYP3A5 [2]; 8 μM SIA, pre-incubation 0 min): 4.6052
- log of percentage of control activity, Figure 4C, Mean (CYP3A5 [2]; 8 μM SIA, pre-incubation 5 min): 4.4632
- log of percentage of control activity, Figure 4C, Mean (CYP3A5 [2]; [17]): 4.4150
- log of percentage of control activity, Figure 4C, Mean (CYP3A5 [2]; [18]): 4.4028
- log of percentage of control activity, Figure 4C, Mean (CYP3A5 [2]; [19]): 4.2282
- log of percentage of control activity, Figure 4C, Mean (CYP3A5 [2]; [20]): 4.5539
- log of percentage of control activity, Figure 4C, Mean (CYP3A5 [2]; [21]): 4.4523
- log of percentage of control activity, Figure 4C, Mean (CYP3A5 [2]; [22]): 4.3701
- log of percentage of control activity, Figure 4C, Mean (CYP3A5 [2]; [23]): 4.2585
- log of percentage of control activity, Figure 4C, Mean (CYP3A5 [2]; [24]): 4.1607
- kinact/KI (CYP3A5 [2]; CYP3A5): 113 M⁻¹ s⁻¹
- KI (CYP3A5 [2]; CYP3A5, testosterone-6β-hydroxylation): 2.07 µM
- kinact (CYP3A5 [2]; human, CYP3A5*1/*3 human liver microsomes with CYP3cide, probe testosterone (200 μM), with CYP3cide ([…]), CYP3A5, testosterone-6β-hydroxylation): 0.000233 s⁻¹
- Kp ([3]; adipose, read-out: Kp Adipose): 36.4
- Kp ([3]; brain, read-out: Kp Brain): 7.4
- Kp ([3]; gut, read-out: Kp Gut): 210
- Kp ([3]; heart, read-out: Kp Heart): 39.5
- Kp ([3]; kidney, read-out: Kp Kidney): 5.9
- Kp ([3]; liver, read-out: Kp Liver): 3.9
- Kp ([3]; lung, read-out: Kp Lung): 19
- Kp ([3]; spleen, read-out: Kp Spleen): 7.6
- microsomal CLint [4]: 130 µL/min/mg
- Ki (CYP3A; midazolam 1′-hydroxylation): 5.83 µM
- Ki (CYP3A; midazolam 4-hydroxylation): 4.8 µM
- increase of systemic exposure of tacrolimus [5]: 2.37 fold
- Log Po:w [6]: 5.265
- fu plasma [7]: 0.0334
- HBD [8]: 0
- PSA [8]: 55.38 Å2
- Dixon plot data point, Figure 2C, Mean (CYP3A4 [9]; 2.4 μM SIA, 0.2 μM tacrolimus): 20.0000
- Dixon plot data point, Figure 2C, Mean (CYP3A4 [9]; 2.4 μM SIA, 0.4 μM tacrolimus): 10.0000
- Dixon plot data point, Figure 2C, Mean (CYP3A4 [9]; 2.4 μM SIA, 0.8 μM tacrolimus): 3.3452
- Dixon plot data point, Figure 2C, Mean (CYP3A4 [9]; 2.4 μM SIA, 1.6 μM tacrolimus): 1.4662
- Dixon plot data point, Figure 2C, Mean (CYP3A4 [9]; 7.2 μM SIA, 0.4 μM tacrolimus): 10.0565
- Dixon plot data point, Figure 2C, Mean (CYP3A4 [9]; 7.2 μM SIA, 1.6 μM tacrolimus): 1.7598
- Dixon plot data point, Figure 2C, Mean (CYP3A4 [9]; 12 μM SIA, 0.2 μM tacrolimus): 20.3445
- Dixon plot data point, Figure 2C, Mean (CYP3A4 [9]; 12 μM SIA, 0.4 μM tacrolimus): 9.8175
- Dixon plot data point, Figure 2C, Mean (CYP3A4 [9]; 12 μM SIA, 0.8 μM tacrolimus): 4.5304
- Dixon plot data point, Figure 2C, Mean (CYP3A4 [9]; 12 μM SIA, 1.6 μM tacrolimus): 1.6431
- reversible inhibition on CYP3A4 (in words) (CYP3A4 [9]; CYP3A5*3/*3 HLM, substrate tacrolimus): little reversible inhibition
- Ki (CYP3A5 [10]): 8.74 µM
- Dixon plot data point, Figure 2D, Mean (CYP3A5 [10]; 2.4 μM SIA, 0.2 μM tacrolimus): 32.0000
- Dixon plot data point, Figure 2D, Mean (CYP3A5 [10]; 2.4 μM SIA, 0.4 μM tacrolimus): 17.6167
- Dixon plot data point, Figure 2D, Mean (CYP3A5 [10]; 2.4 μM SIA, 0.8 μM tacrolimus): 9.2000
- Dixon plot data point, Figure 2D, Mean (CYP3A5 [10]; 2.4 μM SIA, 1.6 μM tacrolimus): 6.2790
- Dixon plot data point, Figure 2D, Mean (CYP3A5 [10]; 7.2 μM SIA, 0.4 μM tacrolimus): 21.6176
- Dixon plot data point, Figure 2D, Mean (CYP3A5 [10]; 7.2 μM SIA, 1.6 μM tacrolimus): 6.9243
- Dixon plot data point, Figure 2D, Mean (CYP3A5 [10]; 12 μM SIA, 0.2 μM tacrolimus): 60.0000
- Dixon plot data point, Figure 2D, Mean (CYP3A5 [10]; 12 μM SIA, 0.4 μM tacrolimus): 30.1990
- Dixon plot data point, Figure 2D, Mean (CYP3A5 [10]; 12 μM SIA, 0.8 μM tacrolimus): 15.0500
- Dixon plot data point, Figure 2D, Mean (CYP3A5 [10]; 12 μM SIA, 1.6 μM tacrolimus): 7.2381
